Source: PubChem BioAssay (NCI)
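A five-concentration, 48-hour dose response in 96-well plates underlies each endpoint, interpolated linearly between surrounding concentrations. TGI: concentration producing complete growth inhibition.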

Assays:
Test in all cases: inhibition of tumour cell growth, NCI panel, 48 h
LXFL 529 NSCLC = system: LXFL 529 NSCLC
DLD-1 colon = system: DLD-1 colon
DMS 273 small cell lung = system: DMS 273 small cell lung
KM20L2 colon = system: KM20L2 colon
SNB-78 CNS = system: SNB-78 CNS
DMS 114 small cell lung = system: DMS 114 small cell lung
RXF-631 renal = system: RXF-631 renal
XF 498 CNS = system: XF 498 CNS

Measured: TGI

CC(=O)Nc1ccc(C(=O)NN2C(=O)C(Cl)C2c2ccccc2)cc1 (configuration not stated)
> 100 µM: LXFL 529 NSCLC | DLD-1 colon | DMS 273 small cell lung | KM20L2 colon | SNB-78 CNS

COc1cc(C[S+]2CCCC2)c(SC)cc1C[S+]1CCCC1
not listed: DMS 273 small cell lung
> 100 µM: all other assays above
